{"source": "patent US8044022B2", "about": "“Hyaluronic acid binding peptides enhance host defense against pathogenic bacteria” (priority 2005, dated 2011)", "key": {"[1]": {"system": "Wild Type GAS (HA encapsulated)", "assay": "Fluorometry binding of FITC-conjugated peptide to encapsulated GAS", "parameters": "species or system Group A Streptococcus", "protocol": "(§1) Bacterial strains: GAS strain 950771 is a moderately encapsulated M3 clinical isolate from a child with post-varicella necrotizing fasciitis and sepsis, and an isogenic capsule deficient mutant, 188, derived from 950771. GAS were grown in Todd-Hewitt broth (Difco) to mid-exponential phase OD650 of 0.15 at 37° C. for all experiments. Commercially available trypticase-soy agar medium supplemented with 5% vol/vol sheep blood (BAP)(PML Microbiologicals, British Columbia, Canada) were used for all plate cultures. S. equi s(ATCC 53185) and P. multocida (ATCC 11039) were purchased from ATCC and cultured as recommended. Briefly, S. equi was cultured in Todd-Hewitt broth and S. uberis and P. multocida were cultured in Brain heart infusion (Difco) to OD 650 of 0.15 at 37° C. Quantitative cultures were performed in parallel with each experiment to verify the multiplicity of infection (MOI) of the inoculum.\n(§2) Binding of HABP to HA and HA-encapsulated bacteria: To assess whether HABP are able to associate specifically with the GAS capsule, bacteria were cultured to mid-log phase, for maximal HA capsule expression, and incubated with either 10 μg/ml of FITC-conjugated HABP01 or SCRM, with purified HA at 1 mg/ml, as a positive control, or an isogenic mutant strain of GAS deficient in HA capsule, as a negative control. A GAS-specific antibody was used to control for the number of bacteria per well."}, "[2]": {"system": "GAS", "assay": "Opsonophagocytic assay with human neutrophils", "assay_type": "cell-based, Group A Streptococcus", "conditions": "50 μg/ml, 2 hours incubation with human neutrophils, 10% absorbed human serum", "protocol": "Encapsulated GAS are resistant to killing by neutrophils in opsonophagocytic assays in the absence of antibodies that bind the bacterial surface. HABPs binding to the bacterial surface may facilitate neutrophil cytotoxicity. Opsonophagocytic assays were performed wherein GAS were incubated with 50 μg/ml of SCRM, HABP01 or HABP35 and mixed with human neutrophils in medium containing 10% absorbed human serum. Aliquots (25 μl) for quantitative culture were withdrawn immediately after mixing neutrophil with GAS and after 2 hr incubation at 37° C. The log increase or decrease in CFU's was calculated. After 2 hours of incubation, there was about a 1.5 log increase in CFU's for GAS treated with PBS or SCRM."}, "[3]": {"assay": "Fluorometry binding of FITC-conjugated peptide to purified HA in well", "parameters": "species or system rooster", "protocol": "Lyophilized synthetic peptides were resuspended in PBS pH7.4 prior to use in either in vitro or in vivo experiments. Fluorescein conjugation of HABP01 and SCRM was performed using 5,6 carboxyfluorescein, succinimidyl ester (5,6 FAM) (Molecular Probes, Portland, Oreg.) as per manufacturer's instructions and separated on a Sephadex G-25 column (Amersham, Piscataway, N.J.). Purified, high molecular weight rooster comb HA (Sigma-Aldrich, St Louis, Mo.) was used as a positive control for BP binding.\nas §2"}, "[4]": {"system": "GAS", "assay": "Mouse soft tissue invasive infection model", "parameters": "species or system CBA/J mice", "conditions": "in vivo", "protocol": "Mouse soft tissue invasive infection model: Female 4-6-week-old CBA/J mice (Jackson Laboratory, […].) were inoculated with GAS. Briefly, mice were anesthetized and the hair was shaved off the right flank. Approximately 1.5×10^5 cfu of GAS from an early log-phase broth culture were suspended in 50 μl of sterile PBS or HABP and inoculated just under the surface of the skin with a 27-guage needle. The animals were observed twice daily for 3-5 days. Serial tail vein bleeds were performed daily and 50 μl of blood was inoculated on BAP for enumeration of viable bacterial CFU and incubated at 37° C. for 24 hours. Animals surviving the experiment or appearing moribund at any time were euthanized and the spleen removed using aseptic technique. The spleen was homogenized in 1 ml of THB and 100 μl of homogenate plated on BAP. In some experiments animals were euthanized at various time points during infection and tissue sections from the inoculation site were prepared for histopathological examination.\nHABP-treated mice repeatedly indicated a 24-hour to 48-hour delay in dissemination of bacteria from the inoculation site compared to controls. […] The delayed dissemination correlated with a reduced mortality 24 hours after infection, but once dissemination occurred, HABP-treated mice died rapidly. Histopathologic analysis of the infection site indicated typical lateral GAS dissemination. […]"}, "[5]": {"system": "S. aureus strain PS80", "assay": "Mouse model of S. aureus surgical wound infection", "assay_type": "in vivo, C57BL6 mice", "conditions": "100 μg into wound at time of challenge with 10^2 CFU; 3 days later", "protocol": "Bacterial strains. S. aureus strain PS80 (serotype 8) was obtained from the American Type Culture collection (#27700) and is a potent inducer of intraabdominal abscess formation. S. aureus COL is a methicillin resistant strain that produces a serotype 5 capsule. Staphylococci were cultivated for 24 h at 37° C. on Columbia agar (Difco Laboratories, Detroit, Mich.) supplemented with 2% NaCl.\nMouse model of S. aureus wound infection. Mice (C57BL6, male, 6-8 wk old) were obtained from Jackson Laboratories (Bar Harbor, Me.). Groups of mice (N=4/group/experiment) were anesthetized with 100 mg/kg ketamine and 10 mg/kg xylazine, their right thighs were shaved, and the surgical area was disinfected with iodine and 70% ethanol. An incision was made in the skin to expose the thigh muscle, and a 1-cm incision was made with a scalpel into the thigh muscle to the depth of the bone. The muscle was then closed with one 4-0 silk suture, and 10 μl of a S. aureus suspension ranging in dose from 10^2 to 10^4 CFU was introduced into the incision under the suture. The skin was closed with four additional Prolene sutures. The mice were euthanized at 3 days post-surgery. The wounded muscle tissue was excised, weighed (˜0.08 g), and homogenized in 1 ml of tryptic soy broth. Serial dilutions of the homogenates were plated in duplicate and results were expressed as CFU/g tissue. Peptides were administered to animals in two ways. For most experiments, HABPs were solubilized in PBS and administered with a pipet into the wound in a 10 μl volume following challenge with bacteria. A 100 μg dose was used for most experiments. For therapeutic studies, peptide was administered via a 1 ml tuberculin syringe fitted with a 25 gauge needle in a 0.25 ml volume injected into the thigh muscle containing the wound distal from the incision site.\nGross pathology and histologic analysis of host response. […] Histological examination of these wounds confirmed these findings. Muscle tissue was harvested from mice at designated intervals post-surgery, fixed in 10% buffered formalin, and mounted in paraffin; 5 to 6-μm sections were cut and stained with hematoxylin and eosin for microscopic examination. […] The cellular infiltrate was primarily comprised of PMNs and fibrin.\nStatistical analyses. All animal experiments were performed at least two times and the data pooled. Comparison of S. aureus CFU/g tissue was made by the Welch modification of the unpaired Student t test (InStat, GraphPad Software, San Diego, Calif.)."}, "[6]": {"system": "Acapsular GAS", "assay": "Fluorometry binding of FITC-conjugated peptide to capsule-deficient GAS", "parameters": "species or system Group A Streptococcus", "protocol": "as §1, §2"}, "[7]": {"conditions": "fluorometry, HABP35 also confocal microscopy, data not shown"}}}
{"sequence": "HKSVSRHTSMRHSTM [SCRM, reference compound]", "values": [{"measurement": "binding to encapsulated GAS (in words)", "setting": "[1]; [7]", "value": "did not bind"}, {"measurement": "Relative binding", "setting": "[1]; substrate in well: Wild Type GAS, 10 μg/ml FITC-conjugated peptide", "value": "1550 ± 30 relative fluorescent units"}, {"measurement": "log increase in CFU's", "setting": "[2]", "value": "~1.5", "unit": "log"}, {"measurement": "binding to purified HA (in words)", "setting": "[3]; fluorometry", "value": "did not bind"}, {"measurement": "Relative binding", "setting": "[3]; substrate in well: HA (1 mg/ml), 10 μg/ml FITC-conjugated peptide", "value": "1520 ± 20 relative fluorescent units"}, {"measurement": "PMNs at the infection site (confocal microscopy of tissue sections)", "setting": "[4]", "value": "numerous polymorphonuclear leukocytes"}, {"measurement": "bacterial burden at the wound site compared with PBS", "setting": "[5]", "value": "did not have this effect"}, {"measurement": "binding to unencapsulated GAS (in words)", "setting": "[6]; [7]", "value": "did not bind"}, {"measurement": "Relative binding", "setting": "[6]; substrate in well: Acapsular GAS, 10 μg/ml FITC-conjugated peptide", "value": "1490 ± 40 relative fluorescent units"}]}
